Results taken from patent publication US20070128217A1 (priority 2003, published 2007).

How the values were obtained:
[1] = tested on: recombinant human anti-SARS-CoV antibody 03-018; type: binding; set-up: Binding of antibody 03-018 to linear peptides of the N protein of SARS-CoV Urbani / Binding of antibody 03-018 to looped/cyclic peptides of the N protein of SARS-CoV Urbani: unit not given here
[2] = tested on: antibodies in sera from SARS patients (sera 1a, 1b, 2, 6, 37, 62, London, SARS-yellow, SARS-green); type: binding, human; set-up: Binding of serum 6 to linear peptides of protein X1 of SARS-CoV Urbani / Binding of serum 37 to linear peptides of protein X1 of SARS-CoV Urbani / Binding of serum 6 to looped/cyclic peptide (PEPSCAN-ELISA) / Binding of serum 37 to looped/cyclic peptide (PEPSCAN-ELISA) / Binding of serum 37 to looped/cyclic peptides of protein X1 of SARS-CoV Urbani / Binding of serum 6 to linear peptides of protein X2 / Binding of serum 37 to linear peptides of protein X2 / Binding of serum 37 to looped/cyclic peptides of protein X2 of SARS-CoV Urbani / Binding of serum 6 to linear peptides of protein M of SARS-CoV Urbani / Binding of serum 37 to linear peptides of protein M of SARS-CoV Urbani / Binding of serum 6 to looped/cyclic peptides of protein M of SARS-CoV Urbani / Binding of serum 37 to looped/cyclic peptides of protein M of SARS-CoV Urbani / Binding of serum 6 to linear peptides of protein X3 of SARS-CoV Urbani / Binding of serum 37 to linear peptides of protein X3 of SARS-CoV Urbani / Binding of serum 37 to looped/cyclic peptides of protein X3 of SARS-CoV Urbani / Binding of serum 6 to linear peptides of protein X4 of SARS-CoV Urbani / Binding of serum 37 to linear peptides of protein X4 of SARS-CoV Urbani / Binding of serum 37 to looped/cyclic peptides of protein X4 of SARS-CoV Urbani / Binding of serum 6 to linear peptides of protein X5 of SARS-CoV Urbani / Binding of serum 37 to linear peptides of protein X5 of SARS-CoV Urbani / Binding of serum 37 to looped/cyclic peptides of protein X5 of SARS-CoV Urbani / Binding of serum 6 to linear peptides of protein N of SARS-CoV Urbani / Binding of serum 37 to linear peptides of protein N of SARS-CoV Urbani / Binding of serum 6 to linear peptide (PEPSCAN-ELISA) / Binding of serum 1a to looped/cyclic peptides of protein N of SARS-CoV Urbani / Binding of serum 1b to looped/cyclic peptides of protein N of SARS-CoV Urbani / Binding of serum 2 to looped/cyclic peptides of protein N of SARS-CoV Urbani / Binding of serum 6 to looped/cyclic peptides of protein N of SARS-CoV Urbani / Binding of serum 37 to looped/cyclic peptides of protein N of SARS-CoV Urbani / Binding of serum 62 to looped/cyclic peptides of protein N of SARS-CoV Urbani / Binding of serum London to looped/cyclic peptides of protein N of SARS-CoV Urbani / Binding of serum SARS-green to looped/cyclic peptides of protein N of SARS-CoV Urbani: unit not given here
[3] = tested on: rabbit serum obtained by immunizing a rabbit with the SARS-CoV strain Frankfurt 1; type: binding; set-up: Binding of a rabbit serum to linear peptides / Binding of a rabbit serum to looped peptides / Rabbit serum linear peptides / Rabbit serum looped peptides / Binding of a rabbit serum to linear peptides of protein N of SARS-CoV Urbani (Rabbit serum linear peptides) / Binding of a rabbit serum to looped/cyclic peptides of protein N of SARS-CoV Urbani (Rabbit serum looped peptides): unit not given here
[4] = tested on: control sera (pooled serum of ten healthy LUMC hospital workers; commercial negative donor pooled serum from the Dutch bloodbank); type: binding, human; set-up: Binding of Control serum LUMC to linear peptides / Binding of Control serum Blood-bank to linear peptides / Binding of Control serum LUMC to looped peptides / Binding of Control Serum Blood-Bank to Looped peptides / Binding of Control serum LUMC to linear peptides of the protein M of SARS-CoV Urbani / Binding of Control serum Blood-bank to linear peptides of the protein M of SARS-CoV Urbani / Binding of Control serum LUMC to looped peptides of the protein M of SARS-CoV Urbani / Binding of Control Serum Blood-Bank to Looped peptides of the protein M of SARS-CoV Urbani: unit not given here

| Sequence | Binding of antibody 03-018 to linear peptides of the N protein of SARS-CoV Urbani [1] | Binding of antibody 03-018 to looped/cyclic peptides of the N protein of SARS-CoV Urbani [1] | Binding of serum 1a to linear peptides of protein N of SARS-CoV Urbani [2] | Binding of serum 1a to looped/cyclic peptides of protein N of SARS-CoV Urbani [2] | Binding of serum 1b to linear peptides of protein N of SARS-CoV Urbani [2] | Binding of serum 1b to looped/cyclic peptides of protein N of SARS-CoV Urbani [2] | Binding of serum 2 to linear peptides of protein N of SARS-CoV Urbani [2] | Binding of serum 2 to looped/cyclic peptides of protein N of SARS-CoV Urbani [2] | Binding of serum 6 to linear peptides of protein N of SARS-CoV Urbani [2] | Binding of serum 6 to looped/cyclic peptides of protein N of SARS-CoV Urbani [2] | Binding of serum 37 to linear peptides of protein N of SARS-CoV Urbani [2] | Binding of serum 37 to looped/cyclic peptides of protein N of SARS-CoV Urbani [2] | Binding of serum 62 to linear peptides of protein N of SARS-CoV Urbani [2] | Binding of serum 62 to looped/cyclic peptides of protein N of SARS-CoV Urbani [2] | Binding of serum London to linear peptides of protein N of SARS-CoV Urbani [2] | Binding of serum London to looped/cyclic peptides of protein N of SARS-CoV Urbani [2] | Binding of serum SARS-green to looped/cyclic peptides of protein N of SARS-CoV Urbani [2] | Binding of serum SARS-yellow to looped/cyclic peptides of protein N of SARS-CoV Urbani [2] | Binding of a rabbit serum to linear peptides of protein N of SARS-CoV Urbani (Rabbit serum linear peptides) [3] | Binding of a rabbit serum to looped/cyclic peptides of protein N of SARS-CoV Urbani (Rabbit serum looped peptides) [3] | other results |
| --- | --- | --- | --- | --- | --- | --- | --- | --- | --- | --- | --- | --- | --- | --- | --- | --- | --- | --- | --- | --- | --- |
| KKDKKKKTDEAQPLP | 0.1 | 0.2 | 0.3 | 0.2 | 0.2 | 0.1 | 1.9 | 2.3 | 0.2 | 0.2 | 0.7 | 0.3 | 0.7 | 0.3 | 0.6 | 0.3 | 0.1 | 0.1 | 0.1 | 0.2 | Binding of serum SARS-green to linear peptides of protein N of SARS-CoV Urbani [2]: 0.4; Binding of serum SARS-yellow to linear peptides of protein N of SARS-CoV Urbani [2]: 0.6; Control Serum Blood-Bank Looped peptides [4]: 0.5; Control serum Blood-bank linear peptides [4]: 0.7; Control serum LUMC linear peptides [4]: 0.6; Control serum LUMC looped peptides [4]: 0.4 |
| KKPRQKRTATKQYNV | 0.1 | 0.2 | – | 0.3 | – | 0.1 | – | 0.4 | – | 0.3 | – | 0.6 | – | 0.5 | – | 0.5 | 0.1 | 0.4 | 0.3 | 0.0 | Binding of serum 1a to linear peptide (PEPSCAN-ELISA) [2]: 0.2; Binding of serum 1b to linear peptide (PEPSCAN-ELISA) [2]: 0.1; Binding of serum 2 to linear peptide (PEPSCAN-ELISA) [2]: 0.3; Binding of serum 6 to linear peptide (PEPSCAN-ELISA) [2]: 0.2; Binding of serum 37 to linear peptide (PEPSCAN-ELISA) [2]: 0.8; Binding of serum 62 to linear peptide (PEPSCAN-ELISA) [2]: 0.8; Binding of serum London to linear peptide (PEPSCAN-ELISA) [2]: 0.7; Binding of serum SARS-green to linear peptide (PEPSCAN-ELISA) [2]: 0.1; Binding of serum SARS-yellow to linear peptide (PEPSCAN-ELISA) [2]: 0.6; Binding of Control Serum Blood-Bank to Looped peptides [4]: 0.4; Binding of Control serum Blood-bank to linear peptides [4]: 0.6; Binding of Control serum LUMC to linear peptides [4]: 0.7; Binding of Control serum LUMC to looped peptides [4]: 0.5 |
| KKQPTVTLLPAADMD | 0.1 | 0.2 | 0.3 | 0.3 | 0.2 | 0.2 | 0.2 | 0.2 | 0.2 | 0.1 | 1.0 | 0.4 | 0.7 | 0.2 | 0.6 | 0.2 | 0.7 | 0.2 | 0.1 | 0.2 | Binding of serum SARS-green to linear peptides of protein N of SARS-CoV Urbani [2]: 1.3; Binding of serum SARS-yellow to linear peptides of protein N of SARS-CoV Urbani [2]: 0.5; Control Serum Blood-Bank Looped peptides [4]: 0.3; Control serum Blood-bank linear peptides [4]: 0.7; Control serum LUMC linear peptides [4]: 0.6; Control serum LUMC looped peptides [4]: 0.3 |
